The results in this text go back to ChEMBL document CHEMBL5316313, “Discovery of Novel 3-Phenylpiperidine Derivatives Targeting the β-Catenin/B-Cell Lymphoma 9 Interaction as a Single Agent and in Combination with the Anti-PD-1 Antibody for the Treatment of Colorectal Cancer” (J Med Chem, 2023).

Where only a bound is given, the exact number is not on record here.

The target in series [1] is T1, beta-catenin-B-cell lymphoma 9 protein complex (Homo sapiens, UniProt P35222).
T1 sequence (P35222 whole entry): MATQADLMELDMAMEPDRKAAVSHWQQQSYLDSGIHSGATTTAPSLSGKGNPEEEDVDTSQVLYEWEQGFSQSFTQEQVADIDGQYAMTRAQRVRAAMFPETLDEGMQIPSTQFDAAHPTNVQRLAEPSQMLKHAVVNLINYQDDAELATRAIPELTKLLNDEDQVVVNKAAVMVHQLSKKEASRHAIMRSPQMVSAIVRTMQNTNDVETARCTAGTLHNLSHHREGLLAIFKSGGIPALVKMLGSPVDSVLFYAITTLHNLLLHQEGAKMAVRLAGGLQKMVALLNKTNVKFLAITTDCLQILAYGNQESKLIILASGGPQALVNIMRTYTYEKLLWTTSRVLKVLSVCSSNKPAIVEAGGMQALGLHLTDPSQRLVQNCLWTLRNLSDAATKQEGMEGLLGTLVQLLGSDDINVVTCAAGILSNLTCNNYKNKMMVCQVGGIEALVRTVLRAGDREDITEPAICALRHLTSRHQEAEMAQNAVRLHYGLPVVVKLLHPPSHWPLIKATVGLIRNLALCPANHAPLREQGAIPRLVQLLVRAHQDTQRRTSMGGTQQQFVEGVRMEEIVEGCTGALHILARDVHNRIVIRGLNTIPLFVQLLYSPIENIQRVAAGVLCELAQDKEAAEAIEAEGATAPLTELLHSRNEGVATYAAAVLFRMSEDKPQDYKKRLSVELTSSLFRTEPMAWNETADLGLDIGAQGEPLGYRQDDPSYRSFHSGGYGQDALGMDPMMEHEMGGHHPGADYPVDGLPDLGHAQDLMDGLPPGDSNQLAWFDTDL
T1 sequence (O00512 whole entry): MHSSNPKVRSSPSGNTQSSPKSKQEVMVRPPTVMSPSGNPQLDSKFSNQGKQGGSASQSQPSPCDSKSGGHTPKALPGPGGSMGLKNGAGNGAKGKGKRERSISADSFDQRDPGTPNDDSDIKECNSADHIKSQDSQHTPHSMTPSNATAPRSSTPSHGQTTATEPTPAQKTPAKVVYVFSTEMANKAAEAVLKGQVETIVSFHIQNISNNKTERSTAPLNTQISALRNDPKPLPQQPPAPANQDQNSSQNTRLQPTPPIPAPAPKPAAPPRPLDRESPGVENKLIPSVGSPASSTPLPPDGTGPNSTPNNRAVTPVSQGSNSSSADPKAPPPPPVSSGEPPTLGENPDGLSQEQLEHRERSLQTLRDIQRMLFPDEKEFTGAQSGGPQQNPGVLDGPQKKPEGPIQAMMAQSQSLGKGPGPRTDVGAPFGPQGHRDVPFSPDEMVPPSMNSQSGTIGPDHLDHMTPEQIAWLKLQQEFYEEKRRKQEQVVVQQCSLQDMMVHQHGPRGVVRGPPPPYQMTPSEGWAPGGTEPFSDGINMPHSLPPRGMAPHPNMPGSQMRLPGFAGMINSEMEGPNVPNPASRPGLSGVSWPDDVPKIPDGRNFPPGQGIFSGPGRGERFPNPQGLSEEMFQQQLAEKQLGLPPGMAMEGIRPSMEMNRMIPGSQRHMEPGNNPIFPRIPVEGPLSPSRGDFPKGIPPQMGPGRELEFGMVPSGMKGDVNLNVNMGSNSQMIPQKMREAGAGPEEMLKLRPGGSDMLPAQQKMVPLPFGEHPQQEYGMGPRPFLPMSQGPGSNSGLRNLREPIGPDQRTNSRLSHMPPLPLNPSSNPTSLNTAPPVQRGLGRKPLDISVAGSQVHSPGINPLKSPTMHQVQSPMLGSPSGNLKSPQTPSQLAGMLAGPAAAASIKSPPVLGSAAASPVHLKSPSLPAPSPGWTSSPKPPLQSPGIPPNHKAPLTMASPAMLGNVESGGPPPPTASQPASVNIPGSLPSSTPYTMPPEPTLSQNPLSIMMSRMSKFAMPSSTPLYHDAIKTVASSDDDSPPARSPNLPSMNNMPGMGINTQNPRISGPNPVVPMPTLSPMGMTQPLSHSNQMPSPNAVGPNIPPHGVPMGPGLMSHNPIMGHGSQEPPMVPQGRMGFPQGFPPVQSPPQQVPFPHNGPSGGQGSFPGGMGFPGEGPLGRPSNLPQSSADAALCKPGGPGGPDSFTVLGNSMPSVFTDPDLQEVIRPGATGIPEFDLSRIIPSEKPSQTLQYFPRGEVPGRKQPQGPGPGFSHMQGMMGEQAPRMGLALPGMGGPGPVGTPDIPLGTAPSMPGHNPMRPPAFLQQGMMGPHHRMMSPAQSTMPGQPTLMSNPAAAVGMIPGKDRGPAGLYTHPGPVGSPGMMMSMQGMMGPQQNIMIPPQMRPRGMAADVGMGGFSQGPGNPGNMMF
As to the kind of experiment: Inhibition of beta-catenin (unknown origin)/BCL9 (unknown origin) protein-protein interaction assessed as inhibition constant by AlphaScreen assay. It counts as protein-complex assay. (In general: Alpha assays give light when donor and acceptor beads are brought close together.)

Series [2] has as its target T1, beta-catenin-B-cell lymphoma 9 protein complex. Nature of the series: Inhibition of beta-catenin (unknown origin)/human BCL9 (350 to 375 residues) protein-protein interaction assessed as inhibition constant by AlphaScreen assay. The class given is protein-complex assay.
The target is the same in series [3]. Nature of the series: Inhibition of N-terminal His6-tagged full-length recombinant beta-catenin (1 to 781 residues) (unknown origin) expressed in Escherichia coli BL21 DE3/N-terminal FAM tagged BCL9 HD2(350 to 375 residues) (unknown origin) protein-protein interaction assessed as inhibition constant incubated for 3 hrs by competitive fluorescence polarization assay. A general note: Fluorescence polarisation rises when a labelled molecule tumbles more slowly, as on binding a larger partner.

For series [4] the target is unchanged. As to the kind of experiment: Inhibition of beta-catenin/BCL9 protein-protein interaction in Wnt-dependent human HCT-116 cells assessed as reduction in Axin2 expression level by qRT-PCR assay. The class given is cell-based. (In general: Real-time PCR tracks product formation cycle by cycle.)
Series [5] is described as follows: Microsomal stability in mouse liver microsomes assessed as half life at […] and measured upto 60 mins by LC-MS/MS analysis. It counts as ADME, Microsome.
Series [6] is described as follows: Microsomal stability in mouse liver microsomes assessed as intrinsic clearance at […] and measured upto 60 mins by LC-MS/MS analysis. It counts as ADME, Microsome. Conditions: read-out: CLH.
Series [7] can be described thus: Microsomal stability in human liver microsomes assessed as half life at […] and measured upto 60 mins by LC-MS/MS analysis. It counts as ADME, Microsome.
Series [8] is described as follows: Microsomal stability in human liver microsomes assessed as intrinsic clearance at […] and measured upto 60 mins by LC-MS/MS analysis. The class given is ADME, Microsome. Conditions: read-out: CLH.
Series [9] concerns the target T1, beta-catenin-B-cell lymphoma 9 protein complex. Nature of the series: Inhibition of FLAG tagged human beta-catenin/FLAG-tagged human BCL9 HD2 (343 to 396 residues) expressed in Escherichia coli BL21 protein-protein interaction assessed as inhibition constant by ELISA.
Series [10] shares this target. As to the kind of experiment: Inhibition of full-length recombinant beta-catenin (1 to 781 residues) (unknown origin)/N-terminal biotinylated BCL9-HD2 (unknown origin) protein-protein interaction assessed as inhibition constant incubated for 90 mins by AlphaScreen assay. The class given is protein-complex assay.

A word on the Ki: it is the dissociation constant of the complex between target and ligand, obtained from inhibition or displacement. For `O=C(Nc1ccc(O[C@H]2CCNC2)c(-c2cccc(-c3nn[nH]n3)c2)c1)c1ccc(O[C@H]2CCNC2)c(-c2ccc(F)c(F)c2)c1`, the inhibitory constant (Ki) in [1] is 470 nM.
Consider `O=C(Nc1ccc(O[C@@H]2CCNC2)c(-c2ccc(F)cc2)c1)c1ccc(O[C@H]2CCNC2)c(-c2ccc(F)c(F)c2)c1`, for which, in series [2], the Ki amounted to 2100 nM.
For orientation: IC50 means the point on the concentration scale where inhibition reaches its midpoint. Turning to `CC(C)c1ccc(-c2cccc(S(=O)(=O)N3CCCC(c4cccc(OC(C)(C)C(=O)NS(=O)(=O)c5cccc(C#N)c5)c4)C3)c2)cc1` (configuration not stated), the IC50 is 1270 nM in series [3] and 1130 nM in [4].
Regarding `CC(C)c1ccc(-c2cccc(S(=O)(=O)N3CCCC(c4cccc(OC(C)(C)C(=O)O)c4)C3)c2)cc1` (configuration not stated), the IC50 in series [3] turned out to be 1580 nM; in series [4] it was 2260 nM.
In the case of `CC(C)(Oc1cccc(C2CCCN(C(=O)OCC3CCCCC3)C2)c1)C(=O)O` (configuration not stated), the IC50 in [3] was 3900 nM; in [4], above 10000 nM.
As usually defined, the half-life is how long it takes for the measured level to halve. Consider `CC(C)c1ccc(-c2cccc(S(=O)(=O)N3CCC[C@H](c4cccc(OC(C)(C)C(=O)NS(=O)(=O)c5ccc(C(F)(F)F)cc5)c4)C3)c2)cc1`, for which the half-life in series [5] was determined as 37.7 min; in [7] it was 21.8 min. The microsomal CLint amounted to 36.8 µL/min/mg in series [6] and 63.6 µL/min/mg in [8].
For the molecule `CC(C)c1ccc(-c2cccc(S(=O)(=O)N3CCCC(c4cccc(OC(C)(C)C(=O)NS(=O)(=O)c5cccs5)c4)C3)c2)cc1` (configuration not stated), the results for the half-life in series [5] and in series [7] were 5.75 min and 6.17 min, respectively. Further, the values for the microsomal CLint in series [6] and in series [8] were 241 µL/min/mg and 225 µL/min/mg, respectively.
With `CC(C)(Oc1cccc(C2CCCN(S(=O)(=O)c3cccc(-c4ccc5ccsc5c4)c3)C2)c1)C(=O)O` (configuration not stated), the concentration for half-maximal inhibition (IC50) in series [3] is 3270 nM; in series [4], 3580 nM.
Regarding `CC(C)c1ccc(-c2cccc(S(=O)(=O)N3CCCC(c4cccc(OC(C)(C)C(=O)NS(=O)(=O)c5ccccc5)c4)C3)c2)cc1` (configuration not stated), the figures for the half-maximal inhibitory concentration (IC50) in series [3] and in series [4] were 1180 nM and 1100 nM, respectively. For the same molecule, the half-life turned out to be 19.8 min in series [5] and 8.67 min in series [7]. For the same molecule, the microsomal CLint amounted to 70 µL/min/mg in [6] and 160 µL/min/mg in [8].
`CC(C)c1cc2c(c(O)c1O)[C@@]1(C(=O)O)CCCC(C)(C)[C@@H]1CC2` [CARNOSIC ACID]: the Ki in series [9] is 3300 nM.
As to `CC(C)(Oc1cccc(C2CCCN(S(=O)(=O)c3cccc(-c4ccc(C(C)(C)C)cc4)c3)C2)c1)C(=O)O` (configuration not stated), the half-inhibitory concentration (IC50) was determined as 3140 nM in series [3] and 1310 nM in series [4].
In the case of `CC(C)c1ccc(-c2cccc(S(=O)(=O)N3CCC[C@@H](c4cccc(OC(C)(C)C(=O)NS(=O)(=O)c5ccc(C(F)(F)F)cc5)c4)C3)c2)cc1`, the half-life in [5] was 14.8 min; in series [7] it was 69.3 min. Moreover, the results for the microsomal CLint in [6] and in [8] were 93.4 µL/min/mg and 20 µL/min/mg, respectively.
Turning to `CC1CCCN(CCCNC(=O)C2=Cc3sc4c(c3CS2)CCCC4)C1` (configuration not stated), the Ki in series [10] was 9000 nM.
